The target in one experiment is Mcl-1 protein (UniProtKB primary accession number: Q07820) (Homo sapiens, UniProt Q07820). In words: Inhibition of Mcl-1 by fluorescence polarisation, Method 1. Format: binding. To be noted: read-out: IC50 (M) Mcl-1 FP. A digest of the protocol: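 Buffer of 10 mM HEPES pH 7.4 with 150 mM NaCl and 0.05% Tween 20 held 5 nM Mcl-1 and 1 nM fluorescein-tagged ligand (final). Compounds were tested as 11-point serial dilutions at 5% final DMSO, and binding was read by FP.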

In experiment [1] the test system is H929 multiple myeloma tumour line. Kind of experiment: In vitro cytotoxicity, Microculture Tetrazolium Assay. To be noted: H929 cells, 48 hours exposure, MTT, read-out: IC50 (μM) MTT H929. The experiment is classed as cell-based. On the procedure: The cytotoxicity studies were carried out on the H929 multiple myeloma tumour line.
The cells are distributed onto microplates and exposed to the test compounds for 48 hours.

Experiment [2] has as its system AMO-1 multiple myeloma cells. Kind of experiment: Quantification of the cleaved form of PARP in vivo (MSD ELISA, tumour lysates). The note with it: activation factor: cleaved PARP in treated mice / control mice, AMO-1 xenograft in SCID mice, intraveinous or oral routes. Further details: species or system mice (SCID strain). On the procedure: The ability of the compounds of the invention to induce apoptosis, by measuring cleaved PARP levels, is evaluated in a xenograft model of AMO-1 multiple myeloma cells. 1.10^7 AMO-1 cells are grafted sub-cutaneously into immunosuppressed mice (SCID strain). 12 to 14 days after the graft, the animals are treated by intraveinous or oral routes with the various compounds. After treatment, the tumour masses are recovered and lysed, and the cleaved form of PARP is quantified in the tumour lysates.
The quantification is carried out using the “Meso Scale Discovery (MSD) ELISA platform” test, which specifically assays the cleaved form of PARP. It is expressed in the form of an activation factor corresponding to the ratio between the quantity of cleaved PARP in the treated mice divided by the quantity of cleaved PARP in the control mice.
In general terms: An ELISA detects its analyte on a solid surface through an enzyme-linked reagent.

Setting [3] is: fluorescence polarisation test, Method 2 values are underlined in the patent (underlining not visible here).
Setting [4] is: fluorescence polarisation, Method 1, or Method 2.

Like-named read-outs stand apart in the source and are kept apart here.

Mcl-1 protein, sequence (Q07820 whole entry): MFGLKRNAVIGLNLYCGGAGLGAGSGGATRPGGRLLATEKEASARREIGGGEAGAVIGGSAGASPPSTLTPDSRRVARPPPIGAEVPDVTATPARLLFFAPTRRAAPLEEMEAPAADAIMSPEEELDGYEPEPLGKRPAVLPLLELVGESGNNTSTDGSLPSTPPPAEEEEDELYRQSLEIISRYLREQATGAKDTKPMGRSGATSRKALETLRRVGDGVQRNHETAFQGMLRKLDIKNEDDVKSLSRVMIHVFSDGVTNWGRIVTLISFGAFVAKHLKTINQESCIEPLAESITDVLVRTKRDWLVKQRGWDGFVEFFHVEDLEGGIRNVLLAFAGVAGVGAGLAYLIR

A word on the IC50: it is the concentration that inhibits the measured activity by half. For the molecule `Cc1c(-c2c(-c3ccc(F)o3)sc3ncnc(OC(Cc4ccccc4OCc4ccnc(C(F)(F)F)c4)C(=O)O)c23)ccc(OCCN2CCN(C)CC2)c1Cl` [Example 167, (2R)-2-{[(5Sa)-5-{3-chloro-2-methyl-4-[2-(4-methylpiperazin-1-yl)ethoxy]phenyl}-6-(5-fluorofuran-2-yl)thieno[2,3-d]pyrimidin-4-yl]oxy}-3-(2-{[2-(trifluoromethyl)pyridin-4-yl]methoxy}phenyl)propanoic acid], the IC50 on Mcl-1 protein (setting [3]) came to 4.6e-09 M; in experiment [1] (Homo sapiens, NCI-H929, 48 h) it was 0.01 µM. Moreover, the PARP fold in experiment [2] is 230.1 fold.
As for `CCCc1nccc(COc2ccccc2CC(Oc2ncnc3sc(-c4ccc(F)cc4)c(-c4ccc(OCCN5CCN(C)CC5)c(Cl)c4C)c23)C(=O)O)n1` [Example 41, (2R)-2-{[(5Sa)-5-{3-chloro-2-methyl-4-[2-(4-methylpiperazin-1-yl)ethoxy]phenyl}-6-(4-fluorophenyl)thieno[2,3-d]pyrimidin-4-yl]oxy}-3-{2-[(2-propylpyrimidin-4-yl)methoxy]phenyl}propanoic acid], the 50% inhibitory concentration (IC50) on Mcl-1 protein (setting [3]) is 2.9e-09 M; in experiment [1] (Homo sapiens, NCI-H929, 48 h), 0.007 µM. This molecule had a PARP fold in experiment [2] of 288.1 fold.
Regarding `Cc1c(-c2c(-c3ccc(F)cc3)sc3ncnc(OC(Cc4ccccc4OCc4ccnc(OCCC(F)(F)F)n4)C(=O)O)c23)ccc(OCCN2CCN(C)CC2)c1Cl` [Example 62, (2R)-2-{[(5Sa)-5-{3-chloro-2-methyl-4-[2-(4-methylpiperazin-1-yl)ethoxy]phenyl}-6-(4-fluorophenyl)thieno[2,3-d]pyrimidin-4-yl]oxy}-3-(2-{[2-(3,3,3-trifluoropropoxy)pyrimidin-4-yl]methoxy}phenyl)propanoic acid], the IC50 at Mcl-1 protein (setting [3]) amounted to 3.9e-09 M; in experiment [1] (Homo sapiens, NCI-H929, 48 h), 0.008 µM. Further, the PARP fold in experiment [2] is given as 391.6 fold.
Consider `Cc1c(-c2c(-c3ccc(F)o3)sc3ncnc(OC(Cc4ccccc4OCc4ccnc(-c5cccs5)n4)C(=O)O)c23)ccc(OCCN2CCN(C)CC2)c1Cl` [Example 171, (2R)-2-{[(5Sa)-5-{3-chloro-2-methyl-4-[2-(4-methylpiperazin-1-yl)ethoxy]phenyl}-6-(5-fluorofuran-2-yl)thieno[2,3-d]pyrimidin-4-yl]oxy}-3-(2-{[2-(thiophen-2-yl)pyrimidin-4-yl]methoxy}phenyl)propanoic acid], for which the IC50 was 4.1e-09 M on Mcl-1 protein (setting [3]) and 0.003 µM in experiment [1] (Homo sapiens, NCI-H929, 48 h). Moreover, the PARP fold in experiment [2] is recorded as 207.4 fold.
In the case of `COc1ccccc1-c1nccc(COc2ccccc2CC(Oc2ncnc3sc(C#CCCc4ccccc4)c(-c4ccc(OCCN5CCN(C)CC5)c(Cl)c4C)c23)C(=O)O)n1` [Example 781, (2R)-2-{[(5Sa)-5-{3-chloro-2-methyl-4-[2-(4-methylpiperazin-1-yl)ethoxy]phenyl}-6-(4-phenylbut-1-yn-1-yl)thieno[2,3-d]pyrimidin-4-yl]oxy}-3-(2-{[2-(2-methoxyphenyl)pyrimidin-4-yl]methoxy}phenyl)propanoic acid], the IC50 at Mcl-1 protein (setting [4]) worked out at 9.48e-10 M; in experiment [1] (Homo sapiens, NCI-H929, 48 h), 0.033 µM. This molecule gave a PARP fold in experiment [2] of 113.3 fold.
Take `COCc1nccc(COc2ccccc2CC(Oc2ncnc3sc(-c4ccc(F)cc4)c(-c4ccc(OCCN5CCN(C)CC5)c(Cl)c4C)c23)C(=O)O)n1` [Example 45, (2R)-2-{[(5Sa)-5-{3-chloro-2-methyl-4-[2-(4-methylpiperazin-1-yl)ethoxy]phenyl}-6-(4-fluorophenyl)thieno[2,3-d]pyrimidin-4-yl]oxy}-3-(2-{[2-(methoxymethyl)pyrimidin-4-yl]methoxy}phenyl)propanoic acid]: the IC50 came to 6.7e-09 M on Mcl-1 protein (setting [3]) and 0.009 µM in experiment [1] (Homo sapiens, NCI-H929, 48 h). In experiment [2], the PARP fold was 194.3 fold.
As to `CCOCc1nccc(COc2ccccc2C[C@@H](Oc2ncnc3sc(-c4ccc(F)cc4)c(-c4ccc(OCCN5CCN(C)CC5)c(Cl)c4C)c23)C(=O)O)n1` [Example 47, (2R)-2-{[(5Sa)-5-{3-chloro-2-methyl-4-[2-(4-methylpiperazin-1-yl)ethoxy]phenyl}-6-(4-fluorophenyl)thieno[2,3-d]pyrimidin-4-yl]oxy}-3-(2-{[2-(ethoxymethyl)pyrimidin-4-yl]methoxy}phenyl)propanoic acid], the IC50 was determined as 7.8e-09 M at Mcl-1 protein (setting [3]) and 0.005 µM in experiment [1]. The PARP fold in experiment [2] is 101.1 fold.
Turning to `Cc1cc(-c2nccc(COc3ccccc3CC(Oc3ncnc4sc(-c5ccc(F)cc5)c(-c5ccc(OCCN6CCN(C)CC6)c(Cl)c5C)c34)C(=O)O)n2)c(C)cn1` [Example 731, (2R)-2-{[(5Sa)-5-{3-chloro-2-methyl-4-[2-(4-methylpiperazin-1-yl)ethoxy]phenyl}-6-(4-fluorophenyl)thieno[2,3-d]pyrimidin-4-yl]oxy}-3-(2-{[2-(2,5-dimethylpyridin-4-yl)pyrimidin-4-yl]methoxy}phenyl)propanoic acid], the IC50 at Mcl-1 protein (setting [4]) is 9.48e-10 M; in experiment [1] (Homo sapiens, NCI-H929, 48 h), 0.005 µM. In experiment [2], this molecule displayed a PARP fold of 175.5 fold.
Consider `COc1ccccc1-c1nccc(COc2ccccc2CC(Oc2ncnc3sc(-c4ccc(F)cc4)c(-c4ccc(OCCN5CCN(C)CC5)c(Cl)c4C)c23)C(=O)OC(C)C)n1` [Example 788, propan-2-yl (2R)-2-{[(5Sa)-5-{3-chloro-2-methyl-4-[2-(4-methylpiperazin-1-yl)ethoxy]phenyl}-6-(4-fluorophenyl)thieno[2,3-d]pyrimidin-4-yl]oxy}-3-(2-{[2-(2-methoxyphenyl)pyrimidin-4-yl]methoxy}phenyl)propanoate], for which the half-maximal inhibitory concentration (IC50) was found to be 6.74e-07 M at Mcl-1 protein (setting [4]) and 0.494 µM in experiment [1] (Homo sapiens, NCI-H929, 48 h). In experiment [2], the PARP fold came out at 144.8 fold.
`Cc1c(-c2c(-c3ccc(F)cc3)sc3ncnc(OC(Cc4ccccc4OCc4ccnc(-c5ccccc5F)n4)C(=O)O)c23)ccc(OCCN(C)C)c1Cl` [Example 757, (2R)-2-{[(5Sa)-5-{3-chloro-4-[2-(dimethylamino)ethoxy]-2-methylphenyl}-6-(4-fluorophenyl)thieno[2,3-d]pyrimidin-4-yl]oxy}-3-(2-{[2-(2-fluorophenyl)pyrimidin-4-yl]methoxy}phenyl)propanoic acid]: the IC50 is 3.95e-09 M at Mcl-1 protein (setting [4]) and 0.013 µM in experiment [1] (Homo sapiens, NCI-H929, 48 h). In experiment [2], this molecule gave a PARP fold of 135.6 fold.
`CC#Cc1sc2ncnc(OC(Cc3ccccc3OCc3ccnn3C(C)(C)C)C(=O)O)c2c1-c1ccc(OCCN2CCN(C)CC2)c(Cl)c1C` [Example 488, (2R)-3-{2-[(1-tert-butyl-1H-pyrazol-5-yl)methoxy]phenyl}-2-{[(5Sa)-5-{3-chloro-2-methyl-4-[2-(4-methylpiperazin-1-yl)ethoxy]phenyl}-6-(prop-1-yn-1-yl)thieno[2,3-d]pyrimidin-4-yl]oxy}propanoic acid]: the IC50 on Mcl-1 protein (setting [4]) was 5.4e-09 M; in experiment [1] (Homo sapiens, NCI-H929, 48 h) it was 0.014 µM. For the same molecule, in experiment [2], the PARP fold amounted to 175.5 fold.
Turning to `Cc1c(-c2c(-c3ccc(F)o3)sc3ncnc(OC(Cc4ccccc4OCc4ccnc(C5CC5)n4)C(=O)O)c23)ccc(OCCN2CCN(C)CC2)c1Cl` [Example 170, (2R)-2-{[(5Sa)-5-{3-chloro-2-methyl-4-[2-(4-methylpiperazin-1-yl)ethoxy]phenyl}-6-(5-fluorofuran-2-yl)thieno[2,3-d]pyrimidin-4-yl]oxy}-3-{2-[(2-cyclopropylpyrimidin-4-yl)methoxy]phenyl}propanoic acid], the IC50 at Mcl-1 protein (setting [3]) was 5.3e-09 M; in experiment [1] (Homo sapiens, NCI-H929, 48 h), 0.006 µM. The same molecule had a PARP fold in experiment [2] of 144 fold.
For `CCOc1nccc(COc2ccccc2CC(Oc2ncnc3sc(-c4ccc(F)o4)c(-c4ccc(OCCN5CCN(C)CC5)c(Cl)c4C)c23)C(=O)O)n1` [Example 177, (2R)-2-{[(5Sa)-5-{3-chloro-2-methyl-4-[2-(4-methylpiperazin-1-yl)ethoxy]phenyl}-6-(5-fluorofuran-2-yl)thieno[2,3-d]pyrimidin-4-yl]oxy}-3-{2-[(2-ethoxypyrimidin-4-yl)methoxy]phenyl}propanoic acid] the same measures were 2.8e-09 M, 0.005 µM and 233.8 fold.
Consider `COCCOc1nccc(COc2ccccc2CC(Oc2ncnc3sc(-c4ccc(F)cc4)c(-c4ccc(OCCN5CCN(C)CC5)c(Cl)c4C)c23)C(=O)O)n1` [Example 63, (2R)-2-{[(5Sa)-5-{3-chloro-2-methyl-4-[2-(4-methylpiperazin-1-yl)ethoxy]phenyl}-6-(4-fluorophenyl)thieno[2,3-d]pyrimidin-4-yl]oxy}-3-(2-{[2-(2-methoxyethoxy)pyrimidin-4-yl]methoxy}phenyl)propanoic acid], for which the IC50 worked out at 4.5e-09 M on Mcl-1 protein (setting [3]) and 0.009 µM in experiment [1] (Homo sapiens, NCI-H929, 48 h). This molecule also came in with a PARP fold in experiment [2] of 177.8 fold.
With `COC(=O)C(Cc1ccccc1OCc1ccnc(-c2ccccc2OC)n1)Oc1ncnc2sc(-c3ccc(F)cc3)c(-c3ccc(OCCN4CCN(C)CC4)c(Cl)c3C)c12` [Example 787, methyl (2R)-2-{[(5Sa)-5-{3-chloro-2-methyl-4-[2-(4-methylpiperazin-1-yl)ethoxy]phenyl}-6-(4-fluorophenyl)thieno[2,3-d]pyrimidin-4-yl]oxy}-3-(2-{[2-(2-methoxyphenyl)pyrimidin-4-yl]methoxy}phenyl)propanoate], the IC50 on Mcl-1 protein (setting [4]) was determined as 4.71e-07 M; in experiment [1] (Homo sapiens, NCI-H929, 48 h), 0.245 µM. The same molecule gave a PARP fold in experiment [2] of 131.5 fold.

Values taken from patent publication US9670227B2, “Thienopyrimidine derivatives, a process for their preparation and pharmaceutical compositions containing them” (LES LABORATOIRES SERVIER, priority 2013, dated 2017).
